# In ChEMBL document CHEMBL3045770, “Design and synthesis of some thieno[2,3-c]pyridazine derivatives of expected anticancer activity” (2013):
# What was measured:
# Format in all cases: functional
# [1] = test system: SN12C; test: Cytotoxicity against Homo sapiens (human) SN12C cells after 48 hr by SRB assay
# [2] = test system: MCF7; test: Cytotoxicity against Homo sapiens (human) MCF7 cells after 48 hr by SRB assay; settings: MCF7, 48 h
# [3] = test system: Malme-3M; test: Cytotoxicity against Homo sapiens (human) MALME-3M cells after 48 hr by SRB assay
# [4] = test system: SK-OV-3; test: Cytotoxicity against Homo sapiens (human) SKOV3 cells after 48 hr by SRB assay; settings: SK-OV-3, 48 h
# [5] = test system: CCRF-CEM; test: Cytotoxicity against Homo sapiens (human) CCRF-CEM cells after 48 hr by SRB assay
# [6] = test system: RPMI-8226; test: Cytotoxicity against Homo sapiens (human) RPMI8226 cells after 48 hr by SRB assay; settings: RPMI-8226, 48 h
# [7] = test system: HCT-15; test: Cytotoxicity against Homo sapiens (human) HCT15 cells after 48 hr by SRB assay; settings: HCT-15, 48 h
# [8] = test system: K562; test: Cytotoxicity against Homo sapiens (human) K562 cells after 48 hr by SRB assay; settings: K562, 48 h
# [9] = test system: OVCAR-4; test: Cytotoxicity against Homo sapiens (human) OVCAR4 cells after 48 hr by SRB assay; settings: OVCAR-4, 48 h
# [10] = test system: SW-620; test: Cytotoxicity against Homo sapiens (human) SW620 cells after 48 hr by SRB assay; settings: SW-620, 48 h
# [11] = test system: MDA-MB-435; test: Cytotoxicity against Homo sapiens (human) MDA-MB-435 cells after 48 hr by SRB assay; settings: MDA-MB-435, 48 h
# [12] = test system: LOX IMVI; test: Cytotoxicity against Homo sapiens (human) LOXIMVI cells after 48 hr by SRB assay
# [13] = test system: IGROV-1; test: Cytotoxicity against Homo sapiens (human) IGROV1 cells after 48 hr by SRB assay; settings: IGROV-1, 48 h
# [14] = test system: NCI-H23; test: Cytotoxicity against Homo sapiens (human) NCI-H23 cells after 48 hr by SRB assay; settings: NCI-H23, 48 h
# [15] = read-out: LC50 (the source's name)
smiles,measurement,setting,value
Oc1c(-c2nnc(-c3ccc(Cl)cc3)o2)sc2nnc(-c3ccccc3)c(-c3ccccc3)c12,GI50,[1],4.65 µM
same,TGI,[1],17.6 µM
same,GI50,[2],4.43 µM
same,TGI,[2],18.3 µM
same,CC50,[2]; [15],0.0183 µM
same,GI50,[3],4.61 µM
same,TGI,[3],11.3 µM
same,GI50,[4],5.04 µM
same,TGI,[4],18.3 µM
same,CC50,[4]; [15],0.0183 µM
same,GI50,[5],2.88 µM
same,TGI,[5],18.3 µM
same,GI50,[6],3.97 µM
same,TGI,[6],18.3 µM
same,CC50,[6]; [15],0.0183 µM
same,GI50,[7],2.27 µM
same,TGI,[7],18.3 µM
same,GI50,[8],4.17 µM
same,TGI,[8],18.3 µM
same,CC50,[8]; [15],0.0183 µM
same,GI50,[9],4.75 µM
same,TGI,[9],18.3 µM
same,CC50,[9]; [15],0.0183 µM
same,GI50,[10],4.56 µM
same,TGI,[10],6.61 µM
same,GI50,[11],4.65 µM
same,TGI,[11],18.3 µM
same,GI50,[12],3.73 µM
same,TGI,[12],9.47 µM
same,CC50,[12]; [15],0.0183 µM
same,GI50,[13],3.66 µM
same,TGI,[13],6.35 µM
same,CC50,[13]; [15],0.0183 µM
same,GI50,[14],4.94 µM
same,TGI,[14],18.3 µM
